# From the supplement of paper PMC10307832
# Assays:
# Experiment in all cases: relative viability (nuclei count vs DMSO), 5 days (fraction); higher = more cells survive
# [1] = system: NCI-H520
# Procedure, shortened: (§1)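 Dosing by pin tool came one day after lung cancer cell lines were seeded in 1536-well plates, using either one drug or a fixed anchor-drug dose plus five library-drug doses (not always all listed) in √10 steps. After 5 days, nuclei were counted on 4× images. Relative viability is treated-well nuclei count divided by vehicle-well nuclei count, and values are medians of duplicate plates.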
# [2] = system: NCI-H441
# Procedure, shortened: as §1
# [3] = system: H3255
# Procedure, shortened: as §1
# [4] = system: ChaGo-K-1
# Procedure, shortened: as §1
# [5] = system: RERF-LC-KJ
# Procedure, shortened: as §1
# [6] = system: NCI-H2087
# Procedure, shortened: as §1
# [7] = system: NCI-H1355
# Procedure, shortened: as §1
# [8] = system: LC-2-ad
# Procedure, shortened: as §1
# [9] = system: NCI-H23
# Procedure, shortened: as §1
# [10] = system: NCI-H1651
# Procedure, shortened: as §1
# [11] = system: LCLC-103H
# Procedure, shortened: as §1
# [12] = system: COR-L 105
# Procedure, shortened: as §1
# [13] = system: NCI-H2126
# Procedure, shortened: as §1
# [14] = system: NCI-H322M
# Procedure, shortened: as §1
# [15] = system: NCI-H647
# Procedure, shortened: as §1
# [16] = system: NCI-H2085
# Procedure, shortened: as §1
# [17] = system: COR-L23
# Procedure, shortened: as §1
# [18] = system: NCI-H1993
# Procedure, shortened: as §1
# [19] = system: 201T
# Procedure, shortened: as §1
# [20] = system: HOP-62
# Procedure, shortened: as §1
# [21] = system: NCI-H2342
# Procedure, shortened: as §1
# [22] = system: SK-MES-1
# Procedure, shortened: as §1
# [23] = system: A-427
# Procedure, shortened: as §1
# [24] = system: HCC-44
# Procedure, shortened: as §1
# [25] = system: NCI-H1915
# Procedure, shortened: as §1
smiles,measurement,setting,value
Nc1cccc2c1CN(C1CCC(=O)NC1=O)C2=O (centres undefined) [Lenalidomide] + CC(=O)c1c(C)c2cnc(Nc3ccc(N4CCNCC4)cn3)nc2n(C2CCCC2)c1=O [Palbociclib] (partner 0.5 µM),relative viability,[1]; first compound 0.253 µM,0.225
same,relative viability,[1]; first compound 0.8 µM,0.216
same,relative viability,[1]; first compound 2.53 µM,0.236
same,relative viability,[1]; first compound 8 µM,0.2
same,relative viability,[2]; first compound 0.253 µM,0.239
same,relative viability,[2]; first compound 0.8 µM,0.205
same,relative viability,[2]; first compound 2.53 µM,0.264
same,relative viability,[2]; first compound 8 µM,0.202
same,relative viability,[3]; first compound 0.253 µM,0.312
same,relative viability,[3]; first compound 0.8 µM,0.302
same,relative viability,[3]; first compound 2.53 µM,0.314
same,relative viability,[3]; first compound 8 µM,0.314
same,relative viability,[4]; first compound 0.253 µM,0.946
same,relative viability,[4]; first compound 0.8 µM,0.978
same,relative viability,[4]; first compound 2.53 µM,1.01
same,relative viability,[4]; first compound 8 µM,0.971
same,relative viability,[5]; first compound 0.253 µM,1.09
same,relative viability,[5]; first compound 0.8 µM,1.06
same,relative viability,[5]; first compound 2.53 µM,1.21
same,relative viability,[5]; first compound 8 µM,1.03
same,relative viability,[6]; first compound 0.253 µM,0.248
same,relative viability,[6]; first compound 2.53 µM,0.192
same,relative viability,[6]; first compound 8 µM,0.196
same,relative viability,[7]; first compound 0.253 µM,0.397
same,relative viability,[7]; first compound 0.8 µM,0.372
same,relative viability,[7]; first compound 2.53 µM,0.413
same,relative viability,[7]; first compound 8 µM,0.286
same,relative viability,[8]; first compound 0.253 µM,0.549
same,relative viability,[8]; first compound 0.8 µM,0.551
same,relative viability,[8]; first compound 2.53 µM,0.533
same,relative viability,[8]; first compound 8 µM,0.531
same,relative viability,[9]; first compound 0.253 µM,0.534
same,relative viability,[9]; first compound 2.53 µM,0.517
same,relative viability,[9]; first compound 8 µM,0.442
same,relative viability,[10]; first compound 0.253 µM,0.504
same,relative viability,[10]; first compound 0.8 µM,0.485
same,relative viability,[10]; first compound 2.53 µM,0.526
same,relative viability,[10]; first compound 8 µM,0.489
same,relative viability,[11]; first compound 0.253 µM,0.484
same,relative viability,[11]; first compound 0.8 µM,0.459
same,relative viability,[11]; first compound 2.53 µM,0.464
same,relative viability,[11]; first compound 8 µM,0.47
same,relative viability,[12]; first compound 0.253 µM,0.394
same,relative viability,[12]; first compound 0.8 µM,0.412
same,relative viability,[12]; first compound 2.53 µM,0.409
same,relative viability,[12]; first compound 8 µM,0.413
same,relative viability,[13]; first compound 0.253 µM,0.359
same,relative viability,[13]; first compound 0.8 µM,0.383
same,relative viability,[13]; first compound 2.53 µM,0.328
same,relative viability,[13]; first compound 8 µM,0.332
same,relative viability,[14]; first compound 0.253 µM,0.53
same,relative viability,[14]; first compound 0.8 µM,0.521
same,relative viability,[14]; first compound 2.53 µM,0.473
same,relative viability,[14]; first compound 8 µM,0.488
same,relative viability,[15]; first compound 0.253 µM,0.467
same,relative viability,[15]; first compound 0.8 µM,0.36
same,relative viability,[15]; first compound 2.53 µM,0.402
same,relative viability,[15]; first compound 8 µM,0.287
same,relative viability,[16]; first compound 0.253 µM,0.48
same,relative viability,[16]; first compound 0.8 µM,0.496
same,relative viability,[16]; first compound 2.53 µM,0.432
same,relative viability,[16]; first compound 8 µM,0.464
same,relative viability,[17]; first compound 0.253 µM,0.342
same,relative viability,[17]; first compound 0.8 µM,0.34
same,relative viability,[17]; first compound 2.53 µM,0.308
same,relative viability,[17]; first compound 8 µM,0.348
same,relative viability,[18]; first compound 0.253 µM,0.789
same,relative viability,[18]; first compound 0.8 µM,0.659
same,relative viability,[18]; first compound 2.53 µM,0.729
same,relative viability,[18]; first compound 8 µM,0.455
same,relative viability,[19]; first compound 0.253 µM,0.394
same,relative viability,[19]; first compound 0.8 µM,0.359
same,relative viability,[19]; first compound 2.53 µM,0.38
same,relative viability,[19]; first compound 8 µM,0.351
same,relative viability,[20]; first compound 0.253 µM,0.45
same,relative viability,[20]; first compound 0.8 µM,0.41
same,relative viability,[20]; first compound 2.53 µM,0.455
same,relative viability,[20]; first compound 8 µM,0.378
same,relative viability,[21]; first compound 0.253 µM,0.551
same,relative viability,[21]; first compound 0.8 µM,0.53
same,relative viability,[21]; first compound 2.53 µM,0.502
same,relative viability,[21]; first compound 8 µM,0.476
same,relative viability,[22]; first compound 0.253 µM,0.317
same,relative viability,[22]; first compound 0.8 µM,0.312
same,relative viability,[22]; first compound 2.53 µM,0.278
same,relative viability,[22]; first compound 8 µM,0.156
same,relative viability,[23]; first compound 0.253 µM,0.529
same,relative viability,[23]; first compound 0.8 µM,0.49
same,relative viability,[23]; first compound 2.53 µM,0.548
same,relative viability,[23]; first compound 8 µM,0.529
same,relative viability,[24]; first compound 0.253 µM,0.965
same,relative viability,[24]; first compound 0.8 µM,0.785
same,relative viability,[24]; first compound 2.53 µM,0.972
same,relative viability,[24]; first compound 8 µM,0.907
same,relative viability,[25]; first compound 0.253 µM,0.549
same,relative viability,[25]; first compound 0.8 µM,0.554
same,relative viability,[25]; first compound 2.53 µM,0.578
same,relative viability,[25]; first compound 8 µM,0.486
Nc1cccc2c1CN(C1CCC(=O)NC1=O)C2=O (centres undefined) [Lenalidomide] + CCNC(=O)c1noc(-c2cc(C(C)C)c(O)cc2O)c1-c1ccc(CN2CCOCC2)cc1 [Luminespib] (partner 0.01 µM),relative viability,[1]; first compound 0.253 µM,0.214
same,relative viability,[1]; first compound 0.8 µM,0.222
same,relative viability,[1]; first compound 2.53 µM,0.218
same,relative viability,[1]; first compound 8 µM,0.267
same,relative viability,[2]; first compound 0.253 µM,0.293
same,relative viability,[2]; first compound 0.8 µM,0.388
same,relative viability,[2]; first compound 2.53 µM,0.307
same,relative viability,[2]; first compound 8 µM,0.285
same,relative viability,[3]; first compound 0.253 µM,0.732
same,relative viability,[3]; first compound 0.8 µM,0.753
same,relative viability,[3]; first compound 2.53 µM,0.915
same,relative viability,[3]; first compound 8 µM,0.876
same,relative viability,[4]; first compound 0.253 µM,0.649
same,relative viability,[4]; first compound 0.8 µM,0.506
same,relative viability,[4]; first compound 2.53 µM,0.788
same,relative viability,[4]; first compound 8 µM,0.541
same,relative viability,[5]; first compound 0.253 µM,1.28
same,relative viability,[5]; first compound 0.8 µM,1.29
same,relative viability,[5]; first compound 2.53 µM,1.12
same,relative viability,[5]; first compound 8 µM,1.32
same,relative viability,[6]; first compound 0.253 µM,0.233
same,relative viability,[6]; first compound 0.8 µM,0.156
same,relative viability,[6]; first compound 2.53 µM,0.14
same,relative viability,[6]; first compound 8 µM,0.169
same,relative viability,[7]; first compound 0.253 µM,0.651
same,relative viability,[7]; first compound 2.53 µM,0.812
same,relative viability,[7]; first compound 8 µM,0.558
same,relative viability,[8]; first compound 0.253 µM,0.912
same,relative viability,[8]; first compound 2.53 µM,1.03
same,relative viability,[8]; first compound 8 µM,1.18
same,relative viability,[9]; first compound 0.253 µM,0.218
same,relative viability,[9]; first compound 0.8 µM,0.173
same,relative viability,[9]; first compound 2.53 µM,0.196
same,relative viability,[9]; first compound 8 µM,0.228
same,relative viability,[10]; first compound 0.253 µM,0.713
same,relative viability,[10]; first compound 0.8 µM,0.895
same,relative viability,[10]; first compound 2.53 µM,0.987
same,relative viability,[10]; first compound 8 µM,1.03
same,relative viability,[11]; first compound 0.253 µM,1.02
same,relative viability,[11]; first compound 0.8 µM,0.958
same,relative viability,[11]; first compound 2.53 µM,1.17
same,relative viability,[11]; first compound 8 µM,0.922
same,relative viability,[12]; first compound 0.253 µM,0.891
same,relative viability,[12]; first compound 0.8 µM,0.574
same,relative viability,[12]; first compound 2.53 µM,0.836
same,relative viability,[12]; first compound 8 µM,0.994
same,relative viability,[13]; first compound 0.253 µM,0.915
same,relative viability,[13]; first compound 0.8 µM,0.935
same,relative viability,[13]; first compound 2.53 µM,0.996
same,relative viability,[13]; first compound 8 µM,0.871
same,relative viability,[14]; first compound 0.253 µM,0.81
same,relative viability,[14]; first compound 0.8 µM,0.982
same,relative viability,[14]; first compound 2.53 µM,1.05
same,relative viability,[14]; first compound 8 µM,1.01
same,relative viability,[15]; first compound 0.253 µM,0.133
same,relative viability,[15]; first compound 0.8 µM,0.284
same,relative viability,[15]; first compound 2.53 µM,0.203
same,relative viability,[15]; first compound 8 µM,0.26
same,relative viability,[16]; first compound 0.253 µM,0.487
same,relative viability,[16]; first compound 0.8 µM,0.487
same,relative viability,[16]; first compound 2.53 µM,0.367
same,relative viability,[16]; first compound 8 µM,0.437
same,relative viability,[17]; first compound 0.253 µM,0.683
same,relative viability,[17]; first compound 0.8 µM,0.766
same,relative viability,[17]; first compound 2.53 µM,0.735
same,relative viability,[17]; first compound 8 µM,0.758
same,relative viability,[18]; first compound 0.253 µM,0.66
same,relative viability,[18]; first compound 0.8 µM,0.726
same,relative viability,[18]; first compound 2.53 µM,0.767
same,relative viability,[18]; first compound 8 µM,0.743
same,relative viability,[19]; first compound 0.253 µM,1.05
same,relative viability,[19]; first compound 2.53 µM,1.03
same,relative viability,[19]; first compound 8 µM,1.09
same,relative viability,[20]; first compound 0.253 µM,0.961
same,relative viability,[20]; first compound 0.8 µM,0.843
same,relative viability,[20]; first compound 2.53 µM,0.899
same,relative viability,[20]; first compound 8 µM,0.938
same,relative viability,[21]; first compound 0.253 µM,0.706
same,relative viability,[21]; first compound 0.8 µM,0.744
same,relative viability,[21]; first compound 2.53 µM,0.806
same,relative viability,[21]; first compound 8 µM,0.56
same,relative viability,[22]; first compound 0.253 µM,0.777
same,relative viability,[22]; first compound 0.8 µM,0.891
same,relative viability,[22]; first compound 2.53 µM,0.886
same,relative viability,[22]; first compound 8 µM,0.863
same,relative viability,[23]; first compound 0.253 µM,0.807
same,relative viability,[23]; first compound 0.8 µM,1
same,relative viability,[23]; first compound 2.53 µM,0.914
same,relative viability,[23]; first compound 8 µM,1.01
same,relative viability,[24]; first compound 0.253 µM,0.988
same,relative viability,[24]; first compound 2.53 µM,1.4
same,relative viability,[24]; first compound 8 µM,1.23
same,relative viability,[25]; first compound 0.253 µM,0.818
same,relative viability,[25]; first compound 0.8 µM,0.845
same,relative viability,[25]; first compound 2.53 µM,0.802
same,relative viability,[25]; first compound 8 µM,0.915
